Reference: US4409325A, “Valproate conjugation using dicarbonyls” (Syva Company, priority 1981, dated 1983)

Columns and labels:
[1] = humans, cited from earlier work
Antivalproate = experiment: Homogeneous enzyme immunoassay for valproate (absorbance difference); assay type: biochemical; details: difference in absorbance×2.667, 340 mn, 10 to 40 seconds
Excerpt: As previously indicated, the antibodies and enzyme reagents prepared in accordance with the subject invention find particular use in immunoassays for the determination of valproate. A description of the method for carrying out the immunoassay, which is a homogeneous enzyme immunoassay, may be found in U.S. Pat. No. 3,817,837. The method involves combining the enzyme conjugate, the unknown sample suspected of containing valproate, an antibody for valproate in an aqueous buffered medium at temperatures in the range of about 10° to 50°, more usually from about 20° to 40° C., and determining the enzyme activity as compared to the enzyme activity of an assay medium having a known amount of valproate.
In carrying out the assay, a Gilford 300 N microsample spectrophotometer is employed with a Thermocuvette with a flow cell. All readings are made at 340 mn. The following solutions are prepared as reagents for use in the assay.
Sufficient enzyme conjugate to give
a maximum rate of ΔOD equal to
Antivalproate optimized for assay
The protocol employed for carrying out an assay is as follows: A sample, 50 μl is drawn up into a diluter and dispensed with 250 μl of the assay buffer into a one ml Croan cup. A 50 μl aliquot of the diluted sample is drawn up and dispensed with a 250 μl portion of assay buffer into a second Croan cup. Into the second Croan cup is introduced 50 μl of the antibody reagent with 250 μl of the assay buffer, followed by the addition of 50 μl of the enzyme reagent and 250 μl of the assay buffer. Immediately after the enzyme addition, the entire sample is aspirated into the flow cell. After 10 seconds, a first reading is taken, followed by a second reading, after a 40 second interval from aspiration. The results are reported as the difference in absorbance×2.667.

[2] = antiepileptic; cited from earlier work
[3] = anticonvulsant use; cited from earlier work

CCCC(CCC)C(=O)O [valproic acid, 2-propylpentanoic acid]
metabolism [1]: metabolized in humans via oxidation predominantly at the positions β and ω to the carboxylic acid
excretion ([1]; urine): eventually excreted in urine as the free acids or via glucuronide formation

CCCC(CCC)C(=O)[O-].[Na+] [Valproate, sodium di-n-propylacetate]
ΔOD (Antivalproate; valproate 25 μg/ml): 630
ΔOD (Antivalproate; valproate 50 μg/ml): 646
ΔOD (Antivalproate; valproate 75 μg/ml): 666
ΔOD (Antivalproate; valproate 100 μg/ml): 682
ΔOD (Antivalproate; valproate 150 μg/ml): 714
minimum level in serum required for therapeutic efficacy [2]: ≥ 50 µg/mL
toxicity [3]: low toxicity
